Laboratory results taken from ChEMBL document CHEMBL5346927, “Discovery of a novel 1H-pyrazole- [3,4-b] pyridine-based lysine demethylase 5B inhibitor with potential anti-prostate cancer activity that perturbs the phosphoinositide 3-kinase/AKT pathway” (Eur J Med Chem, 2023).
Calls of active or inactive are those of the source. No cut-off for these calls is given here.

System: PC-3
Assay: Inhibition of PI3K/AKT pathway in human PC-3 cells assessed as decrease in P110alpha level at 2.5 to 5 uM by Western blot analysis
Format: cell-based
Settings: dose 2.5-5 µM

CN1CCN(CCNC(=O)c2cc(-c3ccc4ccccc4c3)nc3c2cnn3-c2ccccc2)CC1
inhibition: inactive
